Measured values: patent publication US10781426B2 (priority 2012, dated 2020)

Columns and labels:
DPP4 = format: cell-based
HCoV EMC = format: cell-based

Structure (SMILES): Nc1ncnc2c1ncn2[C@@H]1O[C@H](CO)[C@@H](O)[C@H]1O [adenosine]
- DPP4 expression (DPP4): down regulates
- cells' susceptibility to virus infection (HCoV EMC): reduces the cells' susceptibility to virus infection
- virus replication (HCoV EMC): reduces virus replication
